Earlier results as cited in patent US20140010802A1, “SYSTEMS AND METHODS FOR DIAGNOSING A PREDISPOSITION TO DEVELOP CANCER” (University of Hawaii, Office of Technology Transfer and …, priority 2011, published 2014).

System: MM patients
Settings: phase 1 clinical trial, 3 MM patients

SMILES: Cc1c(CN2CCN(C(=O)[C@H](C)O)CC2)sc2c(N3CCOCC3)nc(-c3cnc(N)nc3)nc12 [GDC0980]
- anti-tumor effects in patients: anti-tumor effects
